Results on one compound are retold here after ChEMBL document CHEMBL4680187, “Optimization of EphA2 antagonists based on a lithocholic acid core led to the identification of UniPR505, a new 3α-carbamoyloxy derivative with antiangiogenetic properties” (Eur J Med Chem, 2020).

One data set deals with HUVEC. Put plainly: Cytotoxicity against HUVEC cells upto 30 uM after 16 hrs by MTT assay. The format is cell-based. As to conditions: human. (In general: Tetrazolium dyes change colour on reduction, which living cells bring about.)
Another data set deals with Chorioallantoic membrane. Put plainly: Antiangiogenic activity in Leghorn chicken fertilized egg chorioallantoic membrane assessed as reduction in unstimulated neovascularization at 10 uM measured after 3 days by CAM assay. The format is functional, tissue-based. The following applies: Gallus gallus, time 3.0 day.
The target in the next data set is T1, Ephrin type-B receptor 6 (Mus musculus, UniProt O08644).
T1 sequence (O08644 whole entry): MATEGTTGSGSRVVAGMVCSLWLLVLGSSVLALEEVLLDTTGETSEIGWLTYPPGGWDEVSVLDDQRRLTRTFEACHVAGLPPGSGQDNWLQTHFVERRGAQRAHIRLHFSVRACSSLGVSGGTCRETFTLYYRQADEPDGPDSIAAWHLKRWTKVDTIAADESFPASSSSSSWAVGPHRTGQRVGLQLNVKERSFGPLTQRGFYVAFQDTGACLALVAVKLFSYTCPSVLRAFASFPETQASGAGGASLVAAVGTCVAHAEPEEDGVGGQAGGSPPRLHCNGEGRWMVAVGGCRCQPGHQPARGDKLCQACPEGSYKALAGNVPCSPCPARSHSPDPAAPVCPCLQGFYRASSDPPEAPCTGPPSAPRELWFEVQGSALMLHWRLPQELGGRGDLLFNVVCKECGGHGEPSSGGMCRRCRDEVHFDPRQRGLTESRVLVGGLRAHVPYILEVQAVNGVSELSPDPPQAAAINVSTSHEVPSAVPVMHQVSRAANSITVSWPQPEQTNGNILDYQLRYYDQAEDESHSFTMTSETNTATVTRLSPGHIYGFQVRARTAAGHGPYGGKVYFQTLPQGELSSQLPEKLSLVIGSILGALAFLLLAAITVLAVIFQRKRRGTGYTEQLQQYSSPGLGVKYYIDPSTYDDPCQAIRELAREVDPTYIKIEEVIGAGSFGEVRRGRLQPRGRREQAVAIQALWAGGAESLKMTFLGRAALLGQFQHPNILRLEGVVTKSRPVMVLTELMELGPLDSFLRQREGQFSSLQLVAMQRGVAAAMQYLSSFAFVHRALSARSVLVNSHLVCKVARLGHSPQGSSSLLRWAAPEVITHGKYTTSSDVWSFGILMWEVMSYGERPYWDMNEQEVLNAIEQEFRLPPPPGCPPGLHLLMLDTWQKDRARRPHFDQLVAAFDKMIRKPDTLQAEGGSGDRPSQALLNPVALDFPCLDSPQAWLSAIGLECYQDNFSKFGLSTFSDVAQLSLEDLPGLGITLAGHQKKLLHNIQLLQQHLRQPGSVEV
The data set is described as follows: Displacement of biotinylated ephrin-B1-Fc from mouse EphB6 Fc preincubated for 1 hr followed by ephrin-B1-FC addition and measured after 4 hrs by ELISA. On the technique in general: ELISA stands for enzyme-linked immunosorbent assay.

In the next data set the target is T2, Ephrin type-B receptor 4 (Mus musculus, UniProt P54761).
T2 sequence (P54761 whole entry): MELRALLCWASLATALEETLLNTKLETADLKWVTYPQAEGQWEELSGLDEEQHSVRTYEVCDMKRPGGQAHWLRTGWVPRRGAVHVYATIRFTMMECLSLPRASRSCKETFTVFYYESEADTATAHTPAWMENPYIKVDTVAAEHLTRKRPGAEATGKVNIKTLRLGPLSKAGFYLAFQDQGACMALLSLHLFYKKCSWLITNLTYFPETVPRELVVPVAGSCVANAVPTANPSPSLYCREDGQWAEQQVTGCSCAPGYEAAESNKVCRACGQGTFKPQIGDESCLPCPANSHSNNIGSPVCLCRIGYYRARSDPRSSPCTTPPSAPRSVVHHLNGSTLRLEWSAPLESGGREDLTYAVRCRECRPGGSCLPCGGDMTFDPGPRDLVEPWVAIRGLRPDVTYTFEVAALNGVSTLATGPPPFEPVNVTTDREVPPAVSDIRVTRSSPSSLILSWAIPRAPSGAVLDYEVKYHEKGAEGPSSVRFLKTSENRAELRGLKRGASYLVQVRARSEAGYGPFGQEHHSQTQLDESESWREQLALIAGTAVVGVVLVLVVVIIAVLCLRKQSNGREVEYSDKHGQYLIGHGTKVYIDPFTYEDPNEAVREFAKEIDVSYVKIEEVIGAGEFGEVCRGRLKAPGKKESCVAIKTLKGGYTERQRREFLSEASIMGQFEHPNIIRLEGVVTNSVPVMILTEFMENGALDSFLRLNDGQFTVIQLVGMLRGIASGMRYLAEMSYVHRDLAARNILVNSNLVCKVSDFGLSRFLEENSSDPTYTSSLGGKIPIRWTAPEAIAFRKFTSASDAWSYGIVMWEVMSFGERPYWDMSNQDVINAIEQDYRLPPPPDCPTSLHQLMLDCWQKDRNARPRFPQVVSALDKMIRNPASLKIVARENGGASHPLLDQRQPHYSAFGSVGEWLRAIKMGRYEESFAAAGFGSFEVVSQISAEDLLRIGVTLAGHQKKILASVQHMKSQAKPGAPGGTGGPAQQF
Put plainly: Displacement of biotinylated ephrin-B1-Fc from mouse EphB4 Fc preincubated for 1 hr followed by ephrin-B1-FC addition and measured after 4 hrs by ELISA.

Calls of active or inactive are those of the source. The calls are words filed in the database; no cut-off is given here.

A word on the IC50: it is the point on the concentration scale where inhibition reaches its midpoint. Read a high IC50 as weaker potency. For `CCNC(=O)O[C@@H]1CC[C@@]2(C)[C@H](CC[C@@H]3[C@@H]2CC[C@]2(C)[C@@H]([C@H](C)CCC(=O)N[C@H](CC(=O)O)Cc4c[nH]c5ccccc45)CC[C@@H]32)C1`, the Activity result in the data set with HUVEC was “Non-Toxic”. The result with Chorioallantoic membrane was inactive. The IC50 on Ephrin type-B receptor 6 and on Ephrin type-B receptor 4 was greater than 30 µM each time.
